From US7807679B2, “Piperazine derivatives and their use in controlling pests” (Syngenta Crop Protection, Inc., priority 2004, dated 2010)

| melting point [°C] | Compound |
| --- | --- |
| 72 to 77 | O=C1N(Cc2cnc(Cl)s2)CCN1c1ccc(F)cc1N1CCN(C/C=C/c2ccc(Cl)cc2)CC1 [Example 5, 1-(2-{4-[(E)-3-(4-Chloro-phenyl)-allyl]-piperazin-1-yl}-4-fluoro-phenyl)-3-(2-chloro-thiazol-5-ylmethyl)-imidazolidin-2-one] |
| 210 to 211 | O=C(Nc1cnc(Cl)nc1N1CCN(C/C=C/c2ccc(OC(F)(F)F)cc2)CC1)c1ccnc(Cl)c1 [Example 7, 2-chloro-N-(2-chloro-4-{4-[(E)-3-(4-trifluoromethoxy-phenyl)-allyl]-piperazin-1-yl}-pyrimidin-5-yl)-isonicotinamide] |
| 85 to 88 | Cc1nn(C)c(N2CCN(C/C=C/c3ccc(Cl)cc3)CC2)c1NC(=O)c1ccnc(Cl)c1 [Example 8, 2-Chloro-N-(5-{4-[(E)-3-(4-chloro-phenyl)-allyl]-piperazin-1-yl}-1,3-dimethyl-1H-pyrazol-4-yl)-isonicotinamide] |
| 79 to 80 | O=C(Nc1c(Cl)cc(Cl)cc1N1CCN(C/C=C/c2ccc(Cl)cc2)CC1)c1ccnc(Cl)c1 [Example 10, 2-chloro-N-(2-{4-[(E)-3-(4-chloro-phenyl)-allyl]-piperazin-1-yl}-4,6-dichloro-phenyl)-isonicotinamide] |
